Source: patent publication US20240279207A1, “SUBSTITUTED ACYL SULFONAMIDES FOR TREATING CANCER” (The Broad Institute, Inc., priority 2020, published 2024)

Assays:
[1] = molecular target: T1, Recombinant human His-tagged Kat6a protein (amino acids 194-810) (Homo sapiens, UniProt Q92794); test: Kat6a activity assay (TR-FRET, acetylation of Histone-H4-derived peptide); assay type: biochemical; details: 60 mins at 22° C., 220 nM H4 peptide, 600 nM Acetyl Coenzyme A, read-out: KAT6A - DPF/HAT domain IC50 [mol/l] (arithmetic mean)
T1 construct: Kat6a protein (amino acids 194-810); His
T1 sequence (Q92794 194-810): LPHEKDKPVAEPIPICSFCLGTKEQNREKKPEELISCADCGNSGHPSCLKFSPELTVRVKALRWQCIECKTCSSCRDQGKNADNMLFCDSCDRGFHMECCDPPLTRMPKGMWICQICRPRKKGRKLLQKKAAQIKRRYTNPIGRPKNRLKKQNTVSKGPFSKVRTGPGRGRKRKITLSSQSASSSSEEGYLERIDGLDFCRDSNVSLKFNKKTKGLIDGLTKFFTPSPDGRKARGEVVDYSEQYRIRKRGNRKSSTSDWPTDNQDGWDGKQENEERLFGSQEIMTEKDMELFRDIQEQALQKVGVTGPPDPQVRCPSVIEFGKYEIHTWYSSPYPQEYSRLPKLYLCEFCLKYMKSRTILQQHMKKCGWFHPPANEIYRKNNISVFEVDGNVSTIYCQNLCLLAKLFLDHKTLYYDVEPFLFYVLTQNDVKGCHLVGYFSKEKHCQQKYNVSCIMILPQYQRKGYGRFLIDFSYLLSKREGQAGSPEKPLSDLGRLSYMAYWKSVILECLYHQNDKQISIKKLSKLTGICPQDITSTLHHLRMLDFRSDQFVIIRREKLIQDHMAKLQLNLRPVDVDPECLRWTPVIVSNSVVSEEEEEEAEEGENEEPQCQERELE

[2] = molecular target: T2, Recombinant human GST-tagged Kat6b protein (431-end) (Homo sapiens, UniProt Q8WYB5); test: Kat6b activity assay (TR-FRET, acetylation of Histone-H4-derived peptide); assay type: biochemical; details: 30 mins at 22° C., 500 nM H4 peptide, 600 nM Acetyl Coenzyme A, read-out: KAT6B activity assay IC50 [mol/l] (arithmetic mean)
T2 construct: Kat6b protein (431-end, N-terminal GST-tag); GST (N)
T2 sequence (Q8WYB5 431-2073): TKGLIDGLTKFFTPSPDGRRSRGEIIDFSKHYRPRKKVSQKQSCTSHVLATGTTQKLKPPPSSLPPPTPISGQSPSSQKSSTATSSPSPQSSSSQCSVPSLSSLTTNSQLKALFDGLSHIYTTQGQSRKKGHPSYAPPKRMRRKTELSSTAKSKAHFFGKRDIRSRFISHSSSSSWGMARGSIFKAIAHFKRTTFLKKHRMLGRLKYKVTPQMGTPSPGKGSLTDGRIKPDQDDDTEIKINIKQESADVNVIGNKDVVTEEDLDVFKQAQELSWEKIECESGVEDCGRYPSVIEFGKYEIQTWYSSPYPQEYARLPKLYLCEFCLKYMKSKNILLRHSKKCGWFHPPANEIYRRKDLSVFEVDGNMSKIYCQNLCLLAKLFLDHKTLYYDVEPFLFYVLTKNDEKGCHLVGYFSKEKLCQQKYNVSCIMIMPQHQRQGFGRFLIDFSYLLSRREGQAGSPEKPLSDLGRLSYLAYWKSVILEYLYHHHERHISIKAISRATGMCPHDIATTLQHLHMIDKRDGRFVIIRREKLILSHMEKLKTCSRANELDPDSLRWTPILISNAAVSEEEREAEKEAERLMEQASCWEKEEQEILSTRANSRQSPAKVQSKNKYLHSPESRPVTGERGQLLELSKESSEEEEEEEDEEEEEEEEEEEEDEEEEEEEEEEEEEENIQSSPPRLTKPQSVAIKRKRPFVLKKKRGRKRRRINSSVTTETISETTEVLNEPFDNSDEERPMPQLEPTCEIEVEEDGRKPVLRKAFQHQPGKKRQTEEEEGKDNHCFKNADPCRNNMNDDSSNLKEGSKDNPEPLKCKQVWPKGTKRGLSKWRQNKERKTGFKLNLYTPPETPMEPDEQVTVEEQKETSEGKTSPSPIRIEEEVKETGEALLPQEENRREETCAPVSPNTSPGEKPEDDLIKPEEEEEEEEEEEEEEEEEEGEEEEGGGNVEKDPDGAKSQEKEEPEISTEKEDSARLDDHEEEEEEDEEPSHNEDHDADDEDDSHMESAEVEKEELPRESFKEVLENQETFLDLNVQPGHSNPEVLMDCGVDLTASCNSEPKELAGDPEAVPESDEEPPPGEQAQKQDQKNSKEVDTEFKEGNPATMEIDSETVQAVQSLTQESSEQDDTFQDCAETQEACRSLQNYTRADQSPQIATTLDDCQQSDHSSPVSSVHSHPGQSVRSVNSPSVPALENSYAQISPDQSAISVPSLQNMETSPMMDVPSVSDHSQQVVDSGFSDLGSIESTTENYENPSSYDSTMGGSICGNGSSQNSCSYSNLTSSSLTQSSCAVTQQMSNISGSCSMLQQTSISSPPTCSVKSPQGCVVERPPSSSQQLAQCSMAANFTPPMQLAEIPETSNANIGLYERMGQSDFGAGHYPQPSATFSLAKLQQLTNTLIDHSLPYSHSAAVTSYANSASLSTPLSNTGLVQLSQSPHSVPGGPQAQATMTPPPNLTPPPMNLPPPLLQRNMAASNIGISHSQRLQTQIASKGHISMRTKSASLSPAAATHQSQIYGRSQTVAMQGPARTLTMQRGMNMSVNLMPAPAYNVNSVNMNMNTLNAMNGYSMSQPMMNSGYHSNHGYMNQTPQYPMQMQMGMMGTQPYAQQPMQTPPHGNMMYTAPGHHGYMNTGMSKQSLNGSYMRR
Experimental: Kat6b inhibitory activities of the compounds described in the present invention were quantified using a Fluorescence Resonance Energy Transfer (TR-FRET) assay which measures acetylation of a synthetic, biotinylated Histone-H4-derived peptide by the enzyme.
In this case 50 nl DMSO were used instead of compounds. […] IC50 values were determined by regression analysis based on a 4 parameter equation (minimum, maximum, ICM, Hill; Y=Max+(Min−Max)/(1+(X/ICso) Hill) using the Screener Software (Genedata).

[3] = system: ESR1 transcription in MVLN cells; test: MVLN reporter assay: repression of ESR1 transcription (luciferase signal); assay type: cell-based; details: Homo sapiens, MVLN, 24 h, luciferase signal after 24 h, read-out: MVLN reporter assay, IC50 [M] (arithmetic mean)
Procedure, shortened: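 To control for cell loss, Alamar Blue (2 h, 530/590 nm) precedes the 24 h luciferase measurement. The reporter is an ERE from the Xenopus vitellogenin A2 gene driving luciferase, stably transfected into ER-expressing MVLN cells; duplicate samples.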

ZR-75-1 cells = test: ZR-75-1 proliferation assay; assay type: cell-based; details: Homo sapiens, ZR-75-1, 144 h, Alamar Blue, read-out: ZR75-1 proliferation assay, EC50 [M] (arithmetic mean)
Text: For compound characterization cell survival assays were routinely run in two cell lines. ZR-75-1 is a breast carcinoma cell line containing a focal KAT6A amplification and high KAT6A protein expression. Proliferation of this cell line is inhibited upon treatment with KAT6A inhibitors. As a negative control cell line MDA-MB-436 were used. These cells carry a […] deletion of the KAT6A gene, have a low KAT6A protein expression and are not growth inhibited upon treatment with KAT6A inhibitors.
For measurements cell lines were plated at the below indicated concentration per […] in 96-well plates in a humidified incubator at 37° C. and 5% CO2.
ZR-75-1 (ATCC, CRL-1500; breast carcinoma); 3000 cells per well; culture medium: RPMI 1640 (Biochrom #FG 1215) medium containing 2.5% FBS (Biochrom #S0615).
Each sample was prepared as triplicate and rim wells were excluded. Plates were incubated at 37° C. and 5% CO2 for 144 h. Cell viability was measured by adding 10 μL of Alamar Blue Reagent (Invitrogen #DAL 1100) and plates were incubated for 2 h at 37° C. and 5% CO2. Fluorescence was measured at 590 nm wavelength with a Tecan Spark or Victor X3 MTP-Reader (PerkinElmer).

LCLC97TM1 = LCLC97TM1 proliferation assay; assay type: cell-based; details: Homo sapiens, LCLC-97TM1, LCLC97TM1; read-out: LCLC97TM1 proliferation assay; EC50 [M] (arithmetic mean)
MDA-MB-436 cells = test: MDA-MB-436 proliferation assay (negative control cell line); assay type: cell-based; details: Homo sapiens, 144 h, Alamar Blue, read-out: MDA-MB-436 proliferation assay, EC50 [M] (arithmetic mean)
Procedure, shortened: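 MDA-MB-436 cells (KAT6A deletion, low KAT6A protein) seeded at 3000 cells/well in DMEM/Ham's F12 with 2.5% FBS, treated in triplicate for 144 h at 37° C, 5% CO2. Viability read by Alamar Blue fluorescence at 590 nm after 2 h.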

| Structure (SMILES) | IC50 [1] [µM] | IC50 [2] [µM] | IC50 [3] [M] | EC50 (MDA-MB-436 cells) [M] | EC50 (ZR-75-1 cells) [M] | EC50 (LCLC97TM1) [M] |
| --- | --- | --- | --- | --- | --- | --- |
| CC(C)Oc1ccccc1S(=O)(=O)NC(=O)c1cc2c(F)cc(N3CCC3)cc2o1 [Example 129, 6-(Azetidin-1-yl)-4-fluoro-N-{2-[(propan-2-yl)oxy]benzene-1-sulfonyl}-1-benzofuran-2-carboxamide] | 0.0364 | 0.0518 | 2.74e-08 | > 2e-05 | 1.42e-07 | 4.11e-07 |
| CCOc1ccccc1S(=O)(=O)NC(=O)c1cc2ccc(N3CC(F)C3)cc2o1 [Example 107, N-(2-Ethoxybenzene-1-sulfonyl)-6-(3-fluoroazetidin-1-yl)-1-benzofuran-2-carboxamide] | 0.275 | 0.853 | 1.33e-07 | – | 4.1e-07 | 9.16e-07 |
| CCCOc1ccccc1S(=O)(=O)NC(=O)c1cc2c(F)cc(N3CCC3)cc2o1 [Example 133, 6-(Azetidin-1-yl)-4-fluoro-N-(2-propoxybenzene-1-sulfonyl)-1-benzofuran-2-carboxamide] | 0.0218 | – | 6.41e-08 | > 2e-05 | 1.61e-07 | 6.64e-07 |
| Cc1ccc2cccc(S(=O)(=O)NC(=O)c3cc4c(F)cc(N5CCC5C(C)(C)O)cc4o3)c2n1 (racemic) [Example 161, 4-Fluoro-6-[2-(1-hydroxy-1-methyl-ethyl)azetidin-1-yl]-N-[(2-methyl-8-quinolyl)sulfonyl]benzofuran-2-carboxamide (rac)] | 1.09 | – | 5.92e-06 | > 2e-05 | 7.56e-06 | > 2e-05 |
| COc1cc(C)ccc1S(=O)(=O)NC(=O)c1cc2c(F)cc(N3CCC3)cc2o1 [Example 156, 6-(Azetidin-1-yl)-4-fluoro-N-(2-methoxy-4-methylbenzene-1-sulfonyl)-1-benzofuran-2-carboxamide] | 0.0199 | – | 7.43e-08 | > 2e-05 | 1.34e-07 | 6.6e-07 |
| O=C(NS(=O)(=O)c1cccc2ccc(Cl)nc12)c1cc2c(F)cc(N3CCC3)cc2o1 [Example 132, 6-(Azetidin-1-yl)-N-(2-chloroquinoline-8-sulfonyl)-4-fluoro-1-benzofuran-2-carboxamide] | 0.0141 | – | 5.41e-08 | 1.22e-05 | 1.08e-07 | 1.36e-07 |
| Cc1ccc(OC(C)C)c(S(=O)(=O)NC(=O)c2cc3c(F)cc(N4CCC4)cc3o2)c1 [Example 134, 6-(Azetidin-1-yl)-4-fluoro-N-{5-methyl-2-[(propan-2-yl)oxy]benzene-1-sulfonyl}-1-benzofuran-2-carboxamide] | 0.0183 | – | 7.44e-08 | > 2e-05 | 8.18e-08 | 3.76e-07 |
| CCOc1ccc(C(F)(F)F)cc1S(=O)(=O)NC(=O)c1cc2c(F)cc(N3CCC3)cc2o1 [Example 209, 6-(azetidin-1-yl)-N-[2-ethoxy-5-(trifluoromethyl)phenyl]sulfonyl-4-fluoro-benzofuran-2-carboxamide] | 0.0265 | – | 5.86e-08 | > 2e-05 | 4.59e-08 | 6.32e-07 |
| CCC(C)Oc1ccc(C)cc1S(=O)(=O)NC(=O)c1cc2c(F)cc(N3CCC3)cc2o1 (centres unmarked) [Example 4, 6-(Azetidin-1-yl)-N-(2-{[butan-2-yl]oxy}-5-methylbenzene-1-sulfonyl)-4-fluoro-1-benzofuran-2-carboxamide] | 0.00872 | – | 6.3e-08 | > 2e-05 | 1.14e-07 | 6.42e-07 |
| Cc1ccc(OC(C)C)c(S(=O)(=O)NC(=O)c2cc3c(F)cc(N4CC(F)C4)cc3o2)c1 [Example 157, 4-Fluoro-6-(3-fluoroazetidin-1-yl)-N-{5-methyl-2-[(propan-2-yl)oxy]benzene-1-sulfonyl}-1-benzofuran-2-carboxamide] | 0.0373 | – | 7.51e-08 | > 2e-05 | 1.1e-07 | 7.07e-07 |

Now those with a lower IC50 [1], led by results:

| IC50 [1] [µM] | IC50 [2] [µM] | IC50 [3] [M] | EC50 (MDA-MB-436 cells) [M] | Structure (SMILES) | EC50 (ZR-75-1 cells) [M] | EC50 (LCLC97TM1) [M] |
| --- | --- | --- | --- | --- | --- | --- |
| 0.00618 | 0.0147 | 3.31e-08 | 1.41e-05 | CC(C)c1ccc(OCc2ccccc2)c(S(=O)(=O)NC(=O)c2cc3c(F)cc(N4CCC4)cc3o2)c1 [Example 213, 6-(azetidin-1-yl)-N-(2-benzyloxy-5-isopropyl-phenyl)sulfonyl-4-fluoro-benzofuran-2-carboxamide] | 1.17e-07 | 1.52e-07 |
| 0.00372 | 0.00982 | 2.76e-08 | 1.77e-05 | CC(C)(C)c1ccc(OC2CC2)c(S(=O)(=O)NC(=O)c2cc3c(F)cc(N4CCC4)cc3o2)c1 [Example 224, 6-(Azetidin-1-yl)-N-[(5-(tert-butyl)-2-cyclopropoxyphenyl)sulfonyl]-4-fluorobenzofuran-2-carboxamide] | 7.5e-08 | 1.14e-07 |
| 0.00391 | 0.0203 | 2.43e-08 | – | CC(C)c1ccc(OCC2CC2)c(S(=O)(=O)NC(=O)c2cc3c(F)cc(N4CCC4)cc3o2)c1 [Example 214, 6-(azetidin-1-yl)-N-[2-(cyclopropylmethoxy)-5-isopropyl-phenyl]sulfonyl-4-fluoro-benzofuran-2-carboxamide] | 4.47e-07 | 5.77e-07 |
| 0.00447 | – | 1.76e-07 | > 2e-05 | CCCOc1cccc(OCCC)c1S(=O)(=O)NC(=O)c1cc2c(F)cc(N3CCC3)cc2o1 [Example 17, 6-(Azetidin-1-yl)-N-(2,6-dipropoxybenzene-1-sulfonyl)-4-fluoro-1-benzofuran-2-carboxamide] | 2.76e-07 | 8.49e-07 |
| 0.00797 | – | 7.15e-08 | > 2e-05 | C=C(C)c1ccc(OC)c(S(=O)(=O)NC(=O)c2cc3c(F)cc(N4CCC4)cc3o2)c1 [Example 205, 6-(Azetidin-1-yl)-4-fluoro-N-[2-methoxy-5-(prop-1-en-2-yl)benzene-1-sulfonyl]-1-benzofuran-2-carboxamide] | 1.73e-07 | 9.37e-07 |
| 0.00179 | – | 5.37e-08 | > 2e-05 | CC(C)(C)c1ccc(OCC2CC2)c(S(=O)(=O)NC(=O)c2cc3c(F)cc(N4CCC4)cc3o2)c1 [Example 226, 6-(Azetidin-1-yl)-N-[(5-(tert-butyl)-2-(cyclopropylmethoxy)phenyl)sulfonyl]-4-fluorobenzofuran-2-carboxamide] | 2.78e-08 | 4.63e-08 |
| 0.00141 | – | 4.95e-09 | > 2e-05 | CCOc1ccc(C(C)(C)C)cc1S(=O)(=O)NC(=O)c1cc2c(F)cc(N3CCC3)cc2o1 [Example 78, 6-(azetidin-1-yl)-N-(5-tert-butyl-2-ethoxybenzene-1-sulfonyl)-4-fluoro-1-benzofuran-2-carboxamide] | 5.87e-08 | 5.75e-08 |
| 0.00712 | – | 1.36e-07 | > 2e-05 | CCCOc1cccc(OCC)c1S(=O)(=O)NC(=O)c1cc2c(F)cc(N3CCC3)cc2o1 [Example 10, 6-(Azetidin-1-yl)-N-(2-ethoxy-6-propoxybenzene-1-sulfonyl)-4-fluoro-1-benzofuran-2-carboxamide] | 2.21e-07 | 6.61e-07 |
| 0.00718 | – | 7.43e-08 | > 2e-05 | CC(C)c1ccc(OCC(F)(F)F)c(S(=O)(=O)NC(=O)c2cc3c(F)cc(N4CCC4)cc3o2)c1 [Example 215, 6-(azetidin-1-yl)-4-fluoro-N-[5-isopropyl-2-(2,2,2-trifluoroethoxy)phenyl]sulfonyl-benzofuran-2-carboxamide] | 5.82e-07 | 2.83e-06 |
